Measurements from article PMC9102431, “Natural Compound Shikonin Is a Novel PAK1 Inhibitor and Enhances Efficacy of Chemotherapy against Pancreatic Cancer Cells” (Molecules, 2022).

Molecular target: PAK1 (Homo sapiens, UniProt Q13153)
Assay: ADP-Glo kinase assay with human recombinant PAK1 (also labchip-based screen)
Type: biochemical

Sequence of PAK1 (Q13153 2-545): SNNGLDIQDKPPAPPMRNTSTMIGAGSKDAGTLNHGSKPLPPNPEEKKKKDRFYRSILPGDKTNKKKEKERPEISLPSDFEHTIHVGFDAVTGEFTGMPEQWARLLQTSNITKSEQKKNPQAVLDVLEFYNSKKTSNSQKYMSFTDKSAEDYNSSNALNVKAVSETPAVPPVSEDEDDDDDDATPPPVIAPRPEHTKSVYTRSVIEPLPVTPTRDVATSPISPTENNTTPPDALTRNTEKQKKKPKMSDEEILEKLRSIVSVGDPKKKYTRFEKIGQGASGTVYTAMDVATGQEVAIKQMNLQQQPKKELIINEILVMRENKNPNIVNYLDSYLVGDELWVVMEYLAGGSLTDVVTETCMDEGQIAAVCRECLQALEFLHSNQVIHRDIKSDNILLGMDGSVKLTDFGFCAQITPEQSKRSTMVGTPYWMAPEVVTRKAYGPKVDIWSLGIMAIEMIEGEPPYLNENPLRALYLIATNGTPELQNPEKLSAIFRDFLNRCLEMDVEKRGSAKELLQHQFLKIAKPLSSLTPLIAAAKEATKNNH

## CC(C)=CC[C@@H](O)C1=CC(=O)c2c(O)ccc(O)c2C1=O [shikonin]
  IC50: 7.252 ± 0.054 µM
